PMC4684755 (ACS chemical biology, 2015)

How the values were obtained:
[1] = biological target: PKS18 (Mycobacterium tuberculosis, UniProt P9WPF1)
[2] = biological target: ORAS (Neurospora crassa, UniProt Q7S6N4); assay: type III PKS assay, LC-HRMS; assay type: biochemical; conditions: pH 8.0, room temperature, overnight
[3] = biological target: T1, CsyA (Aspergillus oryzae, UniProt Q53U85); assay: type III PKS assay, LC-HRMS; assay type: biochemical; conditions: malonyl-CoA 2 mM, pH 8.0, room temperature, overnight
T1 sequence (Q53U85 1-402): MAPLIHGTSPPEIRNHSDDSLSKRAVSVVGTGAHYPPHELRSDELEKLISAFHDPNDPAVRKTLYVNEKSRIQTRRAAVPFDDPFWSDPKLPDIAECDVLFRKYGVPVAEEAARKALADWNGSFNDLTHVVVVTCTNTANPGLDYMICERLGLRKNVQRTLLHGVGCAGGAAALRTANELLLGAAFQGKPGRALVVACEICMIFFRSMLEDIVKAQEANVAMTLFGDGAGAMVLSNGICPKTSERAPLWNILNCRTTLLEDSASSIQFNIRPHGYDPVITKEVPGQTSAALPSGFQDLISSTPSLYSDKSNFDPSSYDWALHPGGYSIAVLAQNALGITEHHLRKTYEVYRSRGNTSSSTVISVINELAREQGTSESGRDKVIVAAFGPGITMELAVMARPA

Chain of PKS18 (P9WPF1 whole entry): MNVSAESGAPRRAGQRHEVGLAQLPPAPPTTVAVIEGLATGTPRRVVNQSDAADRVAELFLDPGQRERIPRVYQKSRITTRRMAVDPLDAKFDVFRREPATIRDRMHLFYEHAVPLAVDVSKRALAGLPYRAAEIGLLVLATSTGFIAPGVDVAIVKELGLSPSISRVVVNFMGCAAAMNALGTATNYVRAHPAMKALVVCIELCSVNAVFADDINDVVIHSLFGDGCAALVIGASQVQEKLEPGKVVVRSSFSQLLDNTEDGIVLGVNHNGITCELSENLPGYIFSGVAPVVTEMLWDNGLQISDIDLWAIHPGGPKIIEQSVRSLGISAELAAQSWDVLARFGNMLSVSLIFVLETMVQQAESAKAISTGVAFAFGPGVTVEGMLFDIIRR

| Compound | type III PKS assay, LC-HRMS [1] | type III PKS assay, LC-HRMS ([2]; malonyl-CoA 2 mM) | type III PKS assay, LC-HRMS [3] | type III PKS assay, LC-HRMS ([2]; lauryl-CoA 1 mM) |
| --- | --- | --- | --- | --- |
| CCCCCCCCCCCC(=O)SCCNC(=O)CCNC(=O)[C@H](O)C(C)(C)COP(=O)(O)OP(=O)(O)OC[C@H]1O[C@@H](n2cnc3c(N)ncnc32)[C@H](O)[C@@H]1OP(=O)(O)O [lauryl-CoA] | enzymatic reactions containing lauryl-CoA, malonyl-CoA and the type III PKSs as positive controls | enzymatic reactions containing lauryl-CoA, malonyl-CoA and the type III PKSs as positive controls | enzymatic reactions containing lauryl-CoA, malonyl-CoA and the type III PKSs as positive controls | – |
| CC(C)(COP(=O)(O)OP(=O)(O)OC[C@H]1O[C@@H](n2cnc3c(N)ncnc32)[C@H](O)[C@@H]1OP(=O)(O)O)[C@@H](O)C(=O)NCCC(=O)NCCSC(=O)CC(=O)O [malonyl-CoA] | enzymatic reactions containing lauryl-CoA, malonyl-CoA and the type III PKSs as positive controls | – | – | enzymatic reactions containing lauryl-CoA, malonyl-CoA and the type III PKSs as positive controls |
